From US10517889B2, “Modulators of SMAD7 expression” (Ionis Pharmaceuticals, Inc., priority 2017, dated 2019) come the findings set out here.

“And” between values parts separate entries of the source, which are not always exact repeats. Identical values can stand only once. Strand notation (5' to 3'): a small letter for the sugar, then the base; units joined by * are phosphorothioate-linked, units joined directly phosphodiester-linked; [ ] holds rarer units or linkages, { } end groups; capitals alone tell only the bases. k = constrained ethyl (cEt); [5mC] = 5-methylcytosine; d = 2'-deoxy (DNA)

The test system of data set [1] is human SMAD7 mRNA. The experiment in a line: Antisense inhibition of human SMAD7 mRNA expression in Hep3B cells by 3-10-3 cEt gapmers, 10,000 nM, electroporation (Example 2). To be noted: approximately 24 hours, primer probe set RTS5062, relative to untreated control cells. The format is cell-based. The procedure, abridged: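 SMAD7 mRNA was measured by real-time PCR (RTS5062) with RiboGreen total-RNA normalization, about 24 h after 10,000 nM gapmer was delivered by electroporation into Hep3B cells at 20,000 per well. Gapmers were 16-mer 3-10-3 cEt, fully phosphorothioate; values are % inhibition versus untreated controls.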

The test system of data set [2] is human SMAD7 mRNA. Nature of the data set: Dose-dependent inhibition of human SMAD7 mRNA expression in Hep3B cells (Example 3, Study 1 and 2). The format is cell-based. To be noted: electroporation; for % inhibition of SMAD7 mRNA expression: approximately 16 hours. The procedure, abridged: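 Hep3B cells, 20,000 per well, electroporated with antisense oligonucleotide at 0.31, 1.25, 5.00 or 20.00 μM (first series) or 0.74, 2.22, 6.67 or 20.00 μM (second series). After ~16 h, SMAD7 mRNA measured by RT-qPCR (RTS5062), normalised to RIBOGREEN total RNA. Percent inhibition vs untreated cells; IC50 derived.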

The nature of data set [3]: Plasma chemistry markers after subcutaneous administration in CD-1 mice (Example 6). To be noted: CD-1 mice plasma at day 46; 50 mg/kg subcutaneously twice a week for 7 weeks. The format is in vivo. The protocol:
CD-1® mice (Charles River, Mass.) are a multipurpose mice model, frequently utilized for safety and efficacy testing. The mice were treated with Ionis human SMAD7 antisense oligonucleotides selected from studies described above and evaluated.
Groups of 8-9 week old male CD-1 mice were injected subcutaneously twice a week for 7 weeks with 50 mg/kg of Ionis oligonucleotides (100 mg/kg/week dose). Each group contained 4 mice. One group of male CD-1 mice was injected subcutaneously twice a week for 7 weeks with PBS. […]

Data set [4] can be described thus: Organ weights after subcutaneous administration in CD-1 mice (Example 6). The format is in vivo. To be noted: end of study, 50 mg/kg subcutaneously twice a week for 7 weeks. The protocol: (§1) Groups of 8-9 week old male CD-1 mice were injected subcutaneously twice a week for 7 weeks with 50 mg/kg of Ionis oligonucleotides (100 mg/kg/week dose). Each group contained 4 mice. One group of male CD-1 mice was injected subcutaneously twice a week for 7 weeks with PBS. Plasma was collected for analysis on day 28.
Ionis SMAD7 oligonucleotides that caused any changes in organ weights outside the expected range for antisense oligonucleotides were excluded from further studies.

Data set [5] can be described thus: Hematology assays after subcutaneous administration in CD-1 mice (Example 6). The format is in vivo. The arrangement: RBC / Eosinophils / Monocytes: unit not given here. To be noted: 50 mg/kg subcutaneous twice weekly for 7 weeks. As to the method:
as §1
Blood obtained from all mouse groups was measured by an ADVIA2120i hematology analyzer (Siemens, USA) for measurements of the various blood cells, as well as other hematology markers.

The test system of data set [6] is mouse Smad7 mRNA. The experiment in a line: Pharmacology: mouse Smad7 mRNA expression in liver, kidney, duodenum, ileum and colon after subcutaneous administration in CD-1 mice (Example 6). To be noted: 50 mg/kg subcutaneous twice weekly for 7 weeks, normalized to GAPDH. In kind it is in vivo. The protocol: as §1
The pharmacological activity of the Ionis oligonucleotides in mice was assessed by measuring mouse Smad7 mRNA expression in liver, kidney, duodenum, ileum, and colon at necropsy.
Tissue samples from all mice were analyzed for Smad7 mRNA expression using the primer probe set HTS7555 (forward sequence […], designated SEQ ID NO: 2737; reverse sequence […], designated SEQ ID NO: 2738; probe sequence […], designated SEQ ID NO: 2739), which was normalized to mRNA levels of the housekeeping gene, GAPDH. One-way ANOVA with Dunnet's comparison test was used for statistical analysis.

Data set [7] can be described thus: Tissue and organ histopathology after oral gavage in CD-1 mice (Example 7). In kind it is in vivo. To be noted: daily oral gavage 500 mg/kg for one month, in words. The protocol: Groups of 7-8 week old male CD-1 mice were given an oral gavage dose once daily for 4 weeks of 500 mg/kg of Ionis SMAD7 oligonucleotides. Each group contained 8 mice. One group of male CD-1 mice was administered saline by oral gavage daily.
Histopathology evaluations were performed on the mice treated with Ionis oligonucleotides to evaluate any tissue damage in the liver (with gallbladder), kidneys, heart, spleen, thymus, mesenteric lymph nodes, and different parts of the GI tract, including duodenum, ileum, and colon (proximal and distal). Tissues were collected and fixed in 10% neutral-buffered formalin, embedded in paraffin, sectioned, and stained with hematoxylin and eosin. All the tissues were histologically unremarkable in all mice.

In data set [8] the test system is mouse Smad7 mRNA. Nature of the data set: Murine Smad7 mRNA expression after subcutaneous administration in BALB/c mice (Example 10). The format is in vivo. To be noted: 50 mg/kg subcutaneous once a week for 4 weeks, 24 hours after last dose. As to the method:
The objective of this study was to evaluate the efficacy of Ionis SMAD7 antisense oligonucleotides compared to ION 736697/Mongersen in BALB/c mice following 4 weeks of treatment. Both ION 830025 and ION 798781 are cross-reactive with mouse Smad7 mRNA.
Groups of BALB/c mice were subcutaneously administered 50 mg/kg of Ionis SMAD7 oligonucleotides once a week for 4 weeks. Each group contained 4 mice. One group of mice was administered PBS once a week for 4 weeks. […]

“799144 (antisense kT*kT*kG*dG*dG*dT*dT*dA*dT*dG*dA*d[5mC]*dG*kG*kA*k[5mC]) [compound 799144]”: in data set [1] (Hep3B cells, electroporation with 10,000 nM antisense oligonucleotide), the “% inhibition of SMAD7 mRNA expression” value turned out to be 72%. In addition, the “% Inhibition” value in data set [1] (SMAD7 mRNA, Hep3B cells, 10,000 nM antisense oligonucleotide, electroporation) is 72%. Further, in data set [2] (740 nM, Study 2, relative to untreated control cells), the “% inhibition of SMAD7 mRNA expression” value is 32% and 40%. Further, in data set [2] (2220 nM, Study 2), the “% inhibition of SMAD7 mRNA expression” value is 50% and 57%. Also, in data set [2] (6670.0 nM, Study 2), the “% inhibition of SMAD7 mRNA expression” value is 67% and 60%. In addition, the “% inhibition of SMAD7 mRNA expression” value in data set [2] (20000.0 nM, Study 2) was 83% and 87%. Besides, the IC50 in data set [2] (Study 2 (740-20000 nM)) is 2000 nM and 1000 nM. Moreover, in data set [3], the ALT came out at 253 IU/L, the AST was 170 IU/L, the Albumin was 2.7 g/dL and the BUN is given as 21 mg/dL. In data set [4], the “Organ weights, Kidneys” value is reported as 0.6 g; the “Organ weights, Liver” value turned out to be 2.3 g; the “Organ weights, Spleen” value was found to be 0.1 g. In data set [5], the Eosinophils is on record as 2.9, the Hematocrit is given as 43.1%, the Hemoglobin worked out at 14.3 g/dL and the Lymphocytes is recorded as 80.7%. For the same substance, in data set [5], the MCH amounted to 15.2 pg, the MCHC worked out at 33.2 g/dL, the MCV amounted to 45.8 fL and the Monocytes is listed as 4.9. In addition, in data set [5], the Neutrophils turned out to be 11.4%, the RBC came out at 9.5, the Reticulocytes worked out at 3.3% and the WBC is listed as 6.2 10^3/μL. The platelets in data set [5] is recorded as 614.0 10^3/μL. For the same substance, the Basophils in data set [5] (n.d. = below detection levels) is listed as 0.1 10^3/μL. Moreover, the “% inhibition of Smad7 mRNA expression (compared to control), Kidney” value in data set [6] (kidney) was 3%. The “% inhibition of Smad7 mRNA expression (compared to control), Liver” value in data set [6] (liver) was 0%.

For the substance “ION 790615: 3-10-3 (S)-cEt gapmer targeting human SMAD7; top lead compound (k[5mC]*k[5mC]*kA*dA*dT*dG*dA*dG*dA*dA*dT*dG*d[5mC]*kT*kT*k[5mC])”, the “Histopathology: oligonucleotide-related tissue alterations” value in data set [7] is “not associated with any antisense oligonucleotide-related tissue alterations”. The “Mouse Smad7 mRNA expression (% inhibition), Colon” value in data set [8] (colon) was determined as 71 % inhibition. Moreover, the “Mouse Smad7 mRNA expression (% inhibition), Duodenum” value in data set [8] (duodenum) is reported as 39 % inhibition. Also, the “Mouse Smad7 mRNA expression (% inhibition), Ileum” value in data set [8] (ileum) amounted to 41 % inhibition. For the same substance, in data set [8] (kidney), the “Mouse Smad7 mRNA expression (% inhibition), Kidney” value came to 28 % inhibition. For the same substance, the “Mouse Smad7 mRNA expression (% inhibition), Liver” value in data set [8] (liver) was 47 % inhibition.

The % Inhibition is how much of the control response was suppressed. The term IC50 denotes the concentration that gives 50% inhibition.
